Data on 1 substance can be found in patent US20030180260A1, “Immunotherapy or treating bacterial or viral infection at mucosal surfaces with probiotics, and compositions therefor” (priority 2000, published 2003).

Marks after values point to notes of the source that are not given here.

Assay [1] concerns H. pylori (Sydney strain 1). Description: Clearance of pre-established H. pylori stomach infection in mice dosed with L. acidophilus. Type of assay: in vivo, C57BL/6 mice. The protocol:
Two groups of 5 female C57BL/6 mice were infected with H. pylon (Sydney strain 1) by administration of approx. 10^9 live H. pylori on three consecutive days (days 1, 2 and 3) by gavage. On days 28, 30, 32, 35, 37 and 39 mice were dosed by gavage with live L. acidophilus (5×10^9 in 0.2 mL water) or water (control group).
Twenty-one days later ([…]) mice were killed by pentobarbitone overdose (administered intra-peritoneally) and their stomachs removed. The stomach was dissected into two equal halves and one half was placed in 1 mL of deionised water and homogenised. Serial 10-fold dilutions of stomach homogenate were plated out on chocolate agar plates containing fungizone, vancomycin, bacitracin and nalidixic acid. After incubation for 3 days at 37° C. under microaerophilic conditions, the colonies were counted and the total number of live H. pylori in the original stomach homogenate determined.

Another assay deals with Helicobacter pylori. Description: Metronidazole therapy of H. pylori infection in mice pre-treated with probiotic. Type of assay: in vivo. The settings on record: for % eradication: compared with saline-treated control group. The method, then: H. pylori infected mice (5 per group) were treated with Lactobacillus acidophilus (1×10^9 per animal) by oral feeding 3 times a week for 2 weeks prior to treatment with Metronidazole (0.08 mg/animal) for 1 week.

For the next assay, the system named is H influenzae. Description: Clearance of non-typable H influenzae from the lungs of rats fed L acidophilus. Type of assay: in vivo, DA rats. The method, then:
DA rats (200-250 gm, 8-10 weeks old, Animal Resource Centre, Perth, Wash.) were fed intragastrically L acidophilus in 0.75 mL PBS (2.5×10^10 per rat) or PBS alone every 2 days for 7 days at which time the rats were immuniised with formalin-killed H influenzae ([…]) administered intralumenally (see groups below). Rats continued to be fed every 2 days for 2 weeks and then boosted with 50 μL of formalin killed H influenzae (5×10^8 per rat) administered by the intratracheal route. After further feeding with L acidophilus for a further 7 days, the rats were challenged with 50 μL of live 5×10^8 H influenzae in the lung.
Immunisation Groups (5 Rats/Group):
2H influenzae (intralumenal)+H influenzae (intra-tracheal boost)
3 PBS (intralumenal)+L. acidophilus fed every 2 days
4H influenzae (intralumenal)+H influenzae (intratracheal boost)+L. acidophilus fed every 2 days
After 4 hrs post challenge, the rats were sacrificed and the levels of colonisation in the lung was examined in bronchial lavage (BAL) and lung homogenate (LH). The level of clearance was determined by a plating serial 10-fold dilutions of the lavage fluid or lung homogenate onto chocolate agar plates. The results were expressed as number of colony forming units (CFU.

In assay [2] the test system is IFN-γ. In words: IFN-γ production by OVA-stimulated spleen lymphocytes of mice fed L. acidophilus (ELISA). Type of assay: in vivo, C57/BI6 mice. Conditions: fed intragastrically, OVA-sensitised; spleen lymphocytes stimulated with OVA 5 μg/mL for 4 days; FIG. 1B. The protocol:
(§1) To determine whether probiotic bacteria down-regulate Th2 and up-regulate Th1 cytokine response, C57/BI6 mice were fed intragastrically using a feeding needle, various numbers of Lactobacillus acidophilus (obtained from University of New South Wales, School of Microbiology and Immunology Culture Collection, Sydney, Australia) on consecutive days for 2 weeks after which they were sensitised with 8 μg of ovalbumin (OVA) and aluminium hydroxide in 0.2 mL phosphate-buffered saline administered by peritoneal injection. The mice were further fed ten times with L. acidophilus every two days for two weeks before they were sacrificed. Lymphocytes were isolated by teasing spleens through a sieve, washed with PBS, and resuspended at 10×10^6 One mL aliquots of the cell suspension were dispensed into wells of a 24-well flat-bottomed microtitre plate and stimulated with OVA (5 μg/mL). After incubation for 4 days the supernatants were collected and assayed for IL-4 and IFN-γ production by standard ELISA techniques using IL-4 or IFN-γ monoclonal antibody pairs. Briefly, wells of a 24-well microtitre plate were coated with a capture anti-IL-4 antibody. […] The colour development was read at 450/620 nm in an ELISA plate reader. The level of IL-4 in unknown samples was quantitated by interpolation using a standard curve. […]
A general note: An ELISA detects its analyte on a solid surface through an enzyme-linked reagent.

The next assay relates to Salmonella typhimurium. Description: Translocation of Salmonella typhimurium to spleen in mice fed L acidophilus (VRI 011) and given killed Salmonella vaccine. Type of assay: in vivo, BALB/c mice. The text has this: Female BALB/c mice 6-8 weeks old were obtained from the Animal Resource Centre, Perth, Wash. Lactobacillus acidophilus strain (VRI 011) and the pathogen Salmonella tyhimurium were obtained from the School of Microbiology and Immunology Type Culture Collection, University of New South Wales.
Mice were given 5 doses of L acidophilus (VRI 011) (1×10^8 cfu per dose) or PBS over a 2 week period after which time mice were immunised intragastrically with a killed oral Salmonella vaccine. Two weeks after immunisation, the mice were sacrificed and the spleens collected for enumeration of L acidophilus and S tyhimurium.

Assay [3] relates to IFN-γ. Description: IFN-γ in saliva and cervical lymph node cells after C. albicans challenge (ELISA). Type of assay: in vivo, DBA/2 mice. The method, then: A further study on responses to Candida albicans infection was conducted in the model described in Example 3.
Candida antigen was prepared from freshly cultured Candida albicans by sonication in a MSE Soniprep. The sonicate was centrifuged for 10 min at 2000 g after which time the supernatant was collected and dialysed against PBS. After protein estimation, the solution was filtered sterilised and stored at −20° C. until needed.
A single cell suspension of cervical lymph node (CLN) cells was prepared by teasing lymph node tissue through a sieve. The cells were collected in RPMI 1640 medium supplemented with 10% foetal calf serum (FCS), washed twice by centrifugation and cultured at 4×10^6 cells per well in the presence of 2.5 μg/mL of Candida antigen in a 24-well plate for 3 days.
The culture supernatants were collected and assayed for IL-4, IL-12 and IFN-γ by ELISA using matched antibody pairs and recombinant cytokines as standards (Pharmingen, San Diego, Calif.). The sensitivity of the cytokine ELISA was […] and the results were expressed in net amounts from which the background was subtracted.
Samples of saliva were obtained according to the procedure described in example 2.

The test system of the next assay is IL-4. In words: IL-4 production by OVA-stimulated spleen lymphocytes of mice fed L. acidophilus (ELISA). Type of assay: in vivo, C57/BI6 mice. Conditions: fed intragastrically, OVA-sensitised; spleen lymphocytes stimulated with OVA 5 μg/mL for 4 days; FIG. 1A. The method, then:
as §1

Turning to “Lactobacillus acidophilus [L. acidophilus]”, the “Number of H. pylori in stomach homogenate” value in assay [1] (5×10^9 by gavage on days 28-39 after infection, killed day 50) is 105 ± 14 10^4 CFU. Further, the “level of H. pylori infection of the stomach versus control mice” value in assay [1] (therapeutic dosing on pre-established infection) is given as “lower level of H. pylori infection”. In addition, the H. pylori colonisation in the assay with Helicobacter pylori (L acidophilus 1×10^9 orally 3 times a week for 2 weeks, Metronidazole 0.08 mg/animal for 1 week) is given as 10.5 ± 1.4 ×10^5 CFU/animal. Besides, the “% eradication” value in the assay on Helicobacter pylori is listed as 58^a %; with Helicobacter pylori (listed as probiotic) it was 58%. Moreover, the “BAL H influenzae” value in the assay on H influenzae (bronchial lavage, 4 hrs post challenge with 5×10^8 live H influenzae) is 0.7 ± 0.3 CFU/mL × 10^8. The “LH H influenzae” value in the assay on H influenzae (lung homogenate, 4 hrs post challenge with 5×10^8 live H influenzae) was 12.5 ± 5.7 CFU/mL × 10^6. Besides, the “resistance to H influenzae infection in the lungs” value in the assay with H influenzae (rats fed L acidophilus and immunised with killed H influenzae) was “more resistance to infection”. Besides, the “resistance to infection, repeated oral doses versus single bolus” value in the assay on H influenzae (repeated oral feeding compared with a single bolus) is on record as “more resistant to infection than rats given a single bolus”. Moreover, the “production of IFN-γ” value with IFN-γ [2] is “enhanced”. Moreover, the “protection against translocation of S typhimurium compared with mice fed PBS” value in the assay with Salmonella typhimurium (fed before or simultaneously with killed oral S typhimurium vaccine, live oral challenge) was “better protection against translocation”. Also, in the assay with Salmonella typhimurium (feeding in addition to killed oral vaccine), the “effect of feeding on the vaccine-induced decrease of translocation” value is reported as “further enhanced”. Besides, in the assay with IFN-γ [3] (fed mice challenged with C. albicans, controls no detectable IFN-γ until day 6), the “onset of IFN-γ response after C. albicans challenge” value is recorded as “early response (day 2)”. In addition, in the assay on IFN-γ [3] (fed mice, no C. albicans challenge, FIGS. 6 and 7), the “IFN-γ response in uninfected mice” value was “no IFN-γ response”. The “duration of IFN-γ response after C. albicans challenge versus controls not fed” value in the assay with IFN-γ [3] (still seen in nodes at day 15 and in saliva at day 8) is “more sustained IFN-γ response”. For the same substance, in the assay on IL-4, the IL-4 production entry is on record as “suppression of IL-4 production in dose-dependent manner”.
